Data on 11 molecules can be found in patent US20090093454A1, “Chemical Compounds” (priority 2005, published 2009).

Molecules are shown by their SMILES. Where only a bound is given, the exact number is not on record here.

This experiment deals with HIV-1. The experiment is described as follows: HIV infectivity assay (Table 2, strain not given). The format is cell-based. The settings on record: Human immunodeficiency virus 1, read-out: Activity Level. The procedure: Compounds were profiled against two HIV-1 viruses, the M-tropic (CCR5 utilizing) Ba-L strain and the T-tropic (CXCR4 utilizing) IIIB strain. Both viruses were propagated in human peripheral blood lymphocytes. Compounds were tested for there ability to block infection of the HOS cell line (expressing hCXCR4/hCCR5/hCD4/pHIV-LTR-luciferase) by either HIV-1 Ba-L or HIV-1, IIIB. Compound cytotoxicity was also examined in the absence of virus addition.
HOS cells (expressing hCXCR4/hCCR5/hCD4/pHIV-LTR-luciferase) were harvested and diluted in Dulbeccos modified Eagles media supplemented with 2% FCS and non-essential amino acid to a concentration of 60,000 cells/ml. The cells were plated into 96-well plates (100 ul per well) and the plates were placed in a tissue culture incubator (37° C.; 5% CO2/95% air) for a period of 24 h.
Subsequently, 50 ul of the desired drug solution (4 times the final concentration) was added to each well and the plates were returned to the tissue culture incubator (37° C.; 5% CO2/95% air) for 1 h. Following this incubation 50 ul of diluted virus was added to each well (approximately 2 million RLU per well of virus). The plates were returned to the tissue culture incubator (37° C.; 5% CO2/95% air) and were incubated for a further 96 h.
Following this incubation the endpoint for the virally infected cultures was quantified following addition of Steady-Glo Luciferase assay system reagent (Promega, Madison, Wis.). Cell viability or non-infected cultures was measured using a CellTiter-Glo luminescent cell viability assay system (Promega, Madison, Wis.). All luminescent readouts are performed on a Topcount luminescence detector (Packard, Meridien, Conn.).
Compounds were profiled against two HIV-1 viruses, the M-tropic (CCR5 utilizing) Ba-L strain and the T-tropic (CXCR4 utilizing) IIIB strain. Ba-L was propagated in either peripheral blood lymphocytes or SupT1/CCR5+/CXCR4+ cells. IIIB was propagated in peripheral blood lymphocytes. Compounds were tested for their ability to block infection of the HOS cell line (expressing hCXCR4/hCCR5/hCD4/pHIV-LTR-luciferase) by either HIV-1 Ba-L or HIV-1, IIIB. Compound cytotoxicity was also examined in the absence of virus addition.
HOS cells (expressing hCXCR4/hCCR5/hCD4/pHIV-LTR-luciferase) were harvested and diluted in Dulbeccos modified Eagles media supplemented with 2% FCS to a concentration of 120,000 cells/ml. The cells were plated into 96-well plates (50 μl per well) and the plates were placed in a tissue culture incubator (370° C.; 5% CO2/95% air) for a period of 24 h.
Subsequently, 50 μl of the desired drug solution (2 times the final concentration) was added to each well and the plates were returned to the tissue culture incubator (370° C.; 5% CO2/95% air) for 1 h. Following this incubation, 60 μl of diluted virus (4 times the final concentration) was added to 60 μl of 2× the final desired concentration of the compound and 100 μl of this compound/virus mix was added to each well (approximately 2 million RLU per well of virus). The plates were returned to the tissue culture incubator (370° C.; 5% CO2/95% air) and were incubated for a further 96 h.
For the molecule `CN1CCCC(Cn2c(CN3CCC[C@@H]4CCc5cccnc5[C@H]43)nc3ccccc32)C1` (relative stereo) [Example 42, (trans) 1-({1-[(1-methyl-3-piperidinyl)methyl]-1H-benzimidazol-2-yl}methyl)-1,2,3,4,4a,5,6,10b-octahydro-1,10-phenanthroline], the IC50 lay in the range of 100 to 500 nM. The result for `CN1CCC(N(C)c2cccc3nc(CN4CCC[C@H]5CCc6cccnc6[C@H]54)cn23)C1` (stereo partly drawn) [Example 75, 2-[(4aR,10bS)-3,4,4a,5,6,10b-hexahydro-1,10-phenanthrolin-1(2H)-ylmethyl]-N-methyl-N-(1-methyl-3-pyrrolidinyl)imidazo[1,2-a]pyridin-5-amine] reads less than 100 nM; that for `OC1CCN(c2cccc3nc(CN4CCC[C@H]5CCc6cccnc6[C@H]54)cn23)CC1` [Example 69, 1-{2-[(4aR,10bS)-3,4,4a,5,6,10b-hexahydro-1,10-phenanthrolin-1(2H)-ylmethyl]imidazo[1,2-a]pyridin-5-yl}-4-piperidinol], 100 to 500 nM. The result for `CC(C)N1CCC[C@H](Cn2c(CN3CCC[C@H]4CCc5cccnc5[C@H]43)nc3ccccc32)C1` [Example 65, (4aR,10bS)-1-[(1-{[(3S)-1-(1-methylethyl)-3-piperidinyl]methyl}-1H-benzimidazol-2-yl)methyl]-1,2,3,4,4a,5,6,10b-octahydro-1,10-phenanthroline] reads less than 100 nM. For `CN1CCN(c2cccc3nc(CN4CCC[C@@H]5CCCc6cccnc6[C@H]54)cn23)CC1` [Example 123, (4aS,11bS)-1-{[5-(4-methyl-1-piperazinyl)imidazo[1,2-a]pyridin-2-yl]methyl}-2,3,4,4a,5,6,7,11b-octahydro-1H-pyrido[3′,2′:6,7]cyclohepta[1,2-b]pyridine] the value was less than 100 nM; for `CN(C)C1CN(c2cccc3nc(CN4CCC[C@H]5CCc6cccnc6[C@H]54)cn23)C1` [Example 98, 1-{2-[(4aR,10bS)-3,4,4a,5,6,10b-hexahydro-1,10-phenanthrolin-1(2H)-ylmethyl]imidazo[1,2-a]pyridin-5-yl}-N,N-dimethyl-3-azetidinamine], 100 to 500 nM. Regarding `c1cnc2c(c1)CC[C@H]1CCN(Cc3nc4ccccc4n3CCCN3CCCCC3)[C@H]21` (racemic) [Example 133, (trans) 1-({1-[3-(1-piperidinyl)propyl]-1H-benzimidazol-2-yl}methyl)-2,3,3a,4,5,9b-hexahydro-1H-pyrrolo[3,2-h]quinoline], the IC50 is 100 to 500 nM. The result for `CN1CCN(c2cccc3nc(CN4CCC[C@H]5CCCc6cccnc6[C@H]54)cn23)CC1` [Example 124, (4aR,11bS)-1-{[5-(4-methyl-1-piperazinyl)imidazo[1,2-a]pyridin-2-yl]methyl}-2,3,4,4a,5,6,7,11b-octahydro-1H-pyrido[3′,2′:6,7]cyclohepta[1,2-b]pyridine] reads less than 100 nM.

Regarding `c1cnc2c(c1)CC[C@@H]1CCCN(Cc3nc4ccccc4n3CCCN3CCOCC3)[C@H]21` (racemic) [Example 44, (cis) 1-({1-[3-(4-morpholinyl)propyl]-1H-benzimidazol-2-yl}methyl)-1,2,3,4,4a,5,6,10b-octahydro-1,10-phenanthroline], the IC50 was in the range of 100 to 500 nM. `CN(C)CCN(C)c1cccc2nc(CN3CCC[C@H]4CCc5cccnc5[C@H]43)cn12` [Example 70, N-{2-[(4aR,10bS)-3,4,4a,5,6,10b-hexahydro-1,10-phenanthrolin-1(2H)-ylmethyl]imidazo[1,2-a]pyridin-5-yl}-N,N′,N′-trimethyl-1,2-ethanediamine]: the IC50 was less than 100 nM. On to `NCCCCCn1c(CN2CCC[C@@H]3CCc4cccnc4[C@H]32)nc2ccccc21` (relative stereo) [Example 35, (trans)-5-[2-(3,4,4a,5,6,10b-hexahydro-1,10-phenanthrolin-1(2H)-ylmethyl)-1H-benzimidazol-1-yl]-1-pentanamine], for which the IC50 is 100 to 500 nM.
